Test results from PubChem BioAssay AID330 (DTP/NCI, 2004).
Several values for one entry are separate records, joined by “and”; a condition that tells them apart may be missing. Identical values can stand only once. Toxic doses and inconclusive results are not listed.

Tested on: P388 leukemia ip, CD2F1 mice, survival T/C
Assay: NCI In Vivo Anticancer Drug Screen. Data for tumor model P388 Leukemia (intraperitoneal) in CD2F1 (CDF1) mice
Details: endpoint: median survival time, higher = longer survival
Procedure, shortened: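 Mice carrying the transplanted tumor received test compound or vehicle. Survival was recorded in each group, and the value is the treated-group measurement divided by that of the vehicle-treated control group.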

[1] = dose: 100.0 mg/kg/injection, schedule: Q01DX009 (ip), vehicle: saline
[2] = dose: 60.0 mg/kg/injection, schedule: Q01DX005 (ip), vehicle: saline with Tween-80
[3] = dose: 120.0 mg/kg/injection, schedule: Q01DX005 (ip), vehicle: saline with Tween-80
[4] = dose: 240.0 mg/kg/injection, schedule: Q01DX005 (ip), vehicle: saline with Tween-80
[5] = dose: 100.0 mg/kg/injection, schedule: Q01DX009 (ip), vehicle: saline with Tween-80
[6] = dose: 100.0 mg/kg/injection, schedule: Q04DX003 (ip), vehicle: Klucel (hydroxypropylcellulose) (HPC)
[7] = dose: 200.0 mg/kg/injection, schedule: Q01DX009 (ip), vehicle: saline with Tween-80
[8] = dose: 200.0 mg/kg/injection, schedule: Q04DX003 (ip), vehicle: Klucel (hydroxypropylcellulose) (HPC)
[9] = dose: 50.0 mg/kg/injection, schedule: Q01DX009 (ip), vehicle: Klucel (hydroxypropylcellulose) (HPC)
[10] = dose: 100.0 mg/kg/injection, schedule: Q01DX009 (ip), vehicle: Klucel (hydroxypropylcellulose) (HPC)
[11] = dose: 200.0 mg/kg/injection, schedule: Q01DX009 (ip), vehicle: Klucel (hydroxypropylcellulose) (HPC)
[12] = dose: 12.5 mg/kg/injection, schedule: Q01DX009 (ip), vehicle: saline with Tween-80
[13] = dose: 25.0 mg/kg/injection, schedule: Q01DX009 (ip), vehicle: saline with Tween-80
[14] = dose: 25.0 mg/kg/injection, schedule: Q01DX005 (ip), vehicle: Klucel (hydroxypropylcellulose) (HPC)
[15] = dose: 50.0 mg/kg/injection, schedule: Q01DX005 (ip), vehicle: Klucel (hydroxypropylcellulose) (HPC)
[16] = dose: 100.0 mg/kg/injection, schedule: Q01DX005 (ip), vehicle: Klucel (hydroxypropylcellulose) (HPC)
[17] = dose: 200.0 mg/kg/injection, schedule: Q01DX005 (ip), vehicle: Klucel (hydroxypropylcellulose) (HPC)
[18] = dose: 12.5 mg/kg/injection, schedule: Q01DX005 (ip), vehicle: Klucel (hydroxypropylcellulose) (HPC)
[19] = dose: 50.0 mg/kg/injection, schedule: Q01DX009 (ip), vehicle: saline with Tween-80

Compound: O=C1NCC(Br)C(=O)N1 (configuration not stated)
- T/C (dose: 25.0 mg/kg/injection, schedule: Q01DX009 (ip), vehicle: other): 113 % of control
- T/C (dose: 25.0 mg/kg/injection, schedule: Q01DX009 (ip), vehicle: saline + Tween-80 + alcohol): 112 % of control
- T/C (dose: 50.0 mg/kg/injection, schedule: Q01DX009 (ip), vehicle: saline + Tween-80 + alcohol): 121 % of control
- T/C (dose: 100.0 mg/kg/injection, schedule: Q01DX009 (ip), vehicle: saline + Tween-80 + alcohol): 122 % of control

Compound: O=NN(CCCl)C(=O)Nc1ccc(CCO)cc1
- T/C (dose: 0.22 mg/kg/injection, schedule: Q01DX009 (ip), vehicle: saline + alcohol): 118 % of control
- T/C (dose: 0.5 mg/kg/injection, schedule: Q01DX009 (ip), vehicle: saline + alcohol): 154 % of control
- T/C (dose: 0.75 mg/kg/injection, schedule: Q01DX009 (ip), vehicle: saline + alcohol): 172 % of control
- T/C (dose: 4.0 mg/kg/injection, schedule: Q01DX009 (ip), vehicle: saline): 272 % of control
- T/C (dose: 6.0 mg/kg/injection, schedule: Q01DX009 (ip), vehicle: saline): 272 % of control
- T/C (dose: 9.0 mg/kg/injection, schedule: Q01DX009 (ip), vehicle: saline): 272 % of control

Compound: O=Cc1cccc(O)c1O
- T/C [1]: 103 % of control and 110 % of control
- T/C (dose: 200.0 mg/kg/injection, schedule: Q01DX009 (ip), vehicle: saline): 115 % of control

Compound: COc1ccc(/C=N/N2CN(C(C)C(=O)O)P(N(CCO)CCO)N=C2N)cc1OC (configuration not stated)
- T/C [2]: 104 % of control
- T/C [3]: 99 % of control
- T/C [4]: 99 % of control

Compound: COc1ccc(OCC(O)CN2CCN(c3ccc(Cl)cc3)CC2)cc1 (configuration not stated)
- T/C [5]: 99 % of control
- T/C [6]: 100 % of control
- T/C [7]: 101 % of control
- T/C [8]: 100 % of control
- T/C (dose: 400.0 mg/kg/injection, schedule: Q01DX009 (ip), vehicle: saline with Tween-80): 92 % of control

Compound: CCOC(=O)C(CC1=CS(=O)(=O)c2ccc(Cl)cc21)(NC(C)=O)C(=O)OCC
- T/C [9]: 96 % of control
- T/C [10]: 91 % of control
- T/C [11]: 87 % of control

Compound: CC1(CBr)C2CCC1C(=O)C2 (configuration not stated)
- T/C (dose: 6.25 mg/kg/injection, schedule: Q01DX005 (ip), vehicle: saline with Tween-80): 100 % of control
- T/C (dose: 12.5 mg/kg/injection, schedule: Q01DX005 (ip), vehicle: saline with Tween-80): 96 % of control
- T/C (dose: 25.0 mg/kg/injection, schedule: Q01DX005 (ip), vehicle: saline with Tween-80): 96 % of control

Compound: O=C([Se][Se]C(=O)c1ccccc1)c1ccccc1
- T/C (dose: 6.25 mg/kg/injection, schedule: Q01DX009 (ip), vehicle: saline with Tween-80): 101 % of control
- T/C [12]: 107 % of control
- T/C [13]: 107 % of control

Compound: C/C=C1\CN2CCC34c5ccccc5N(C)C35OCC4(C(=O)OC)C1CC25 (configuration not stated)
- T/C (dose: 5.25 mg/kg/injection, schedule: Q01DX005 (ip), vehicle: saline + Tween-80 + alcohol): 100 % of control
- T/C (dose: 10.5 mg/kg/injection, schedule: Q01DX005 (ip), vehicle: saline + Tween-80 + alcohol): 92 % of control
- T/C (dose: 21.0 mg/kg/injection, schedule: Q01DX005 (ip), vehicle: saline + Tween-80 + alcohol): 98 % of control
- T/C (dose: 42.0 mg/kg/injection, schedule: Q01DX005 (ip), vehicle: saline + Tween-80 + alcohol): 96 % of control

Compound: CC(=O)Nc1ccc(Sc2ncc([N+](=O)[O-])s2)cc1
- T/C (dose: 12.5 mg/kg/injection, schedule: Q01DX009 (ip), vehicle: Klucel (hydroxypropylcellulose) (HPC)): 100 % of control
- T/C (dose: 25.0 mg/kg/injection, schedule: Q01DX009 (ip), vehicle: Klucel (hydroxypropylcellulose) (HPC)): 116 % of control
- T/C [9]: 100 % of control and 108 % of control
- T/C [10]: 102 % of control

Compound: Fc1ccc(CN2COc3c(cc(Cl)c4cccnc34)C2)cc1
- T/C [6]: 102 % of control
- T/C [8]: 100 % of control
- T/C (dose: 400.0 mg/kg/injection, schedule: Q04DX003 (ip), vehicle: Klucel (hydroxypropylcellulose) (HPC)): 110 % of control

Compound: O=C(Cc1ccc(Cl)cc1)NCCc1ccccc1
- T/C (dose: 50.0 mg/kg/injection, schedule: Q01DX005 (ip), vehicle: saline with Tween-80): 102 % of control
- T/C (dose: 100.0 mg/kg/injection, schedule: Q01DX005 (ip), vehicle: saline with Tween-80): 102 % of control
- T/C (dose: 200.0 mg/kg/injection, schedule: Q01DX005 (ip), vehicle: saline with Tween-80): 99 % of control

Compound: C(=Nc1ccc2ccc3cccc4ccc1c2c34)c1ccncc1
- T/C [14]: 102 % of control
- T/C [15]: 100 % of control
- T/C [16]: 100 % of control
- T/C [17]: 92 % of control

Compound: CCCCCC(/C=C/C1C(O[Si](C)(C)C(C)(C)C)CC(N(C)C)C1(C/C=C/CCCC(=O)OC)S(=O)(=O)c1ccccc1)O[Si](C)(C)C(C)(C)C (configuration not stated)
- T/C (dose: 100.0 mg/kg/injection, schedule: Q04DX002 (ip), vehicle: Klucel (hydroxypropylcellulose) (HPC)): 91 % of control
- T/C (dose: 200.0 mg/kg/injection, schedule: Q04DX002 (ip), vehicle: Klucel (hydroxypropylcellulose) (HPC)): 88 % of control
- T/C (dose: 400.0 mg/kg/injection, schedule: Q04DX002 (ip), vehicle: Klucel (hydroxypropylcellulose) (HPC)): 89 % of control

Compound: CCOC(=O)CCC1=C(C)c2cc3[n-]c(cc4nc(cc5[n-]c(cc1n2)c(CCC(=O)OCC)c5C)C=C4C)cc3C.[Ni+2]
- T/C [15]: 96 % of control
- T/C [16]: 92 % of control

Compound: COC(=O)OC(C#N)c1cccc([N+](=O)[O-])c1 (configuration not stated)
- T/C (dose: 25.0 mg/kg/injection, schedule: Q01DX009 (ip), vehicle: suspension in saline): 101 % of control
- T/C (dose: 50.0 mg/kg/injection, schedule: Q01DX009 (ip), vehicle: suspension in saline): 98 % of control
- T/C [1]: 94 % of control
- T/C (dose: 100.0 mg/kg/injection, schedule: Q01DX009 (ip), vehicle: suspension in saline): 104 % of control

Compound: S=C1OCCO1
- T/C [9]: 106 % of control
- T/C [10]: 102 % of control
- T/C [11]: 100 % of control
- T/C (dose: 400.0 mg/kg/injection, schedule: Q01DX009 (ip), vehicle: Klucel (hydroxypropylcellulose) (HPC)): 105 % of control

Compound: N=C(N)Sc1cc(Br)c[n+]([O-])c1
- T/C [15]: 104 % of control
- T/C [16]: 102 % of control
- T/C [17]: 100 % of control

Compound: CCOC(=C\C(=O)NC)/C=C/c1ccc([N+](=O)[O-])cc1
- T/C (dose: 6.25 mg/kg/injection, schedule: Q01DX005 (ip), vehicle: Klucel (hydroxypropylcellulose) (HPC)): 117 % of control
- T/C [18]: 91 % of control
- T/C [14]: 91 % of control
- T/C [15]: 86 % of control
- T/C [16]: 88 % of control

Compound: C/C=C/Cc1nnc(C)c2c(C)[nH]nc12
- T/C [19]: 100 % of control
- T/C [5]: 96 % of control
- T/C [7]: 102 % of control

Compound: [Br][Pb]([Br])([c]1ccccc1)[c]1ccccc1
- T/C [12]: 104 % of control and 112 % of control
- T/C [13]: 113 % of control (2×) and 114 % of control
- T/C [19]: 107 % of control and 121 % of control
- T/C [5]: 98 % of control

Compound: CC(C)(Sc1cc(Cl)c(Cl)c(Cl)c1)C(=O)OCCN1CCOCC1
- T/C [2]: 101 % of control and 88 % of control
- T/C [3]: 101 % of control
- T/C [4]: 86 % of control and 94 % of control

Compound: CS(=O)(=O)C(CCC(=O)C(c1ccccc1)c1ccccc1)C(=O)c1ccccc1 (configuration not stated)
- T/C [15]: 110 % of control
- T/C [16]: 109 % of control
- T/C [17]: 93 % of control

Compound: N#CSCc1ccc(CSC#N)c(Cl)c1
- T/C (dose: 1.56 mg/kg/injection, schedule: Q04DX003 (ip), vehicle: saline sonified): 100 % of control
- T/C (dose: 2.08 mg/kg/injection, schedule: Q01DX009 (ip), vehicle: saline with Tween-80): 109 % of control
- T/C (dose: 3.13 mg/kg/injection, schedule: Q01DX009 (ip), vehicle: saline with Tween-80): 100 % of control
- T/C (dose: 3.13 mg/kg/injection, schedule: Q04DX003 (ip), vehicle: saline sonified): 104 % of control
- T/C (dose: 4.69 mg/kg/injection, schedule: Q01DX009 (ip), vehicle: saline with Tween-80): 118 % of control
- T/C (dose: 6.25 mg/kg/injection, schedule: Q04DX003 (ip), vehicle: saline sonified): 109 % of control

Compound: O=C1NC(O)c2ccccc2O1 (configuration not stated)
- T/C (dose: 50.0 mg/kg/injection, schedule: Q01DX009 (ip), vehicle: saline): 106 % of control
- T/C [1]: 123 % of control

Compound: NC(Cc1cccc2ccccc12)C(=O)O (configuration not stated)
- T/C [18]: 93 % of control
- T/C [14]: 100 % of control
- T/C [15]: 102 % of control and 110 % of control
